US9464291B2, “Methods and compositions for the treatment of cancer” (University of South Alabama, priority 2012, dated 2016)
“Also recorded” adds a separate entry of the source.

How the values were obtained:
c-jun = c-jun mRNA (semi-quantitative PCR) and protein (Western blot) in A2780-CP70 cells; type: cell-based, human
Method: Controls included α-tubulin and histone deacetylase 3. C-jun antibody recognizes non-phosphorylated c-jun protein.
c-jun and c-fos mRNA expression was examined in A2780-CP70 cells transfected with anti-GLI1 shRNA construct at 6 hr, 24 hr, 48 hr, and 72 hr post-transfection using semi-quantative PCR analysis (FIG. 41).
A2780-CP70 cells were transfected with an IC50 dose of anti-Gli1 shRNA (treated) construct or vector (control). Total intracellular c-jun mRNA and c-jun protein was measured at 6 hr, 24 hr, 48 hr, and 72 hr.
C-jun mRNA and protein levels were further examined in cisplatin-resistant A2780-CP70 cells treated with an IC50 dose of anti-Gli1 shRNA. FIG. 78 depicts mRNA levels (panel A) and protein levels (panel B) in cells at 6, 24, 48, and 72 hours post-treatment.

[1] = test system: c-jun (Ser 63, Ser 73, Thr 91, Thr 93); experiment: c-jun protein phosphorylation, Western blot, A2780-CP70 cells; type: cell-based, human; details: 72 hr observation
Method: Protein levels for c-jun, c-fos, phosphorylated c-jun (Ser 63), phosphorylated c-jun (Ser 73), and phosphorylated c-jun (Thr 91, Thr 93) were tested in cytosolic, nuclear, and whole cell fractions at 0 hr, 6 hr, 24 hr, 48 hr, and 72 hr. Internal controls for cytosolic and nuclear fractions included α-tubulin and histone deacetylase 3.
Phosphorylation of c-jun in A2780-CP70 cells transfected with anti-GLI1 shRNA construct was assessed using Western blot analysis. Protein levels for c-jun, phosphorylated c-jun (Ser 63), phosphorylated c-jun (Ser 73), and phosphorylated c-jun (Thr 91, Thr 93) were examined at 0 hr, 6 hr, 24 hr, 48 hr, and 72 hr.
A2780-CP70 cells were treated with an IC50 dose of cisplatin and an IC50 dose of anti-Gli1 shRNA.

[2] = test system: OPN, MMP9, Cathepsin K (CTSK); experiment: OPN, MMP9 and CTSK expression by osteoclasts; type: cell-based, murine; details: DM supplemented with cyclopamine
Description: Quantitative RT-PCR (qRT-PCR)-cDNA was generated using High Capacity Reverse Transcriptase Kit (Applied Biosystems, Foster City, Calif.). […] All reactions were done in triplicate.

OPN promoter = OPN promoter luciferase reporter assay in melanoma cell lines; type: cell-based, human; details: MDA-MB-435, MCC012A, MCC012F
Method: Empty pGL3 vector was used as control. Hedgehog ligands were added to the well 6 h prior to harvesting the cells (approximately 33 hr of initiation of transfection) for assay. Readings were normalized to total protein content. Each parameter was studied in triplicate and the experiment repeated at least 3 times. The data are represented as percent luciferase activity, which was derived as a percent of the relative light units in treated groups compared with the untreated groups.

RAW264.7 cells = experiment: Osteoclast resorption activity, OAAS plates; type: cell-based, murine; details: DM supplemented with SHH (100 nM) or OPN (100 ng/ml)
Method: Osteoclast differentiation and activity assays—Tartarate-resistant acid phosphatase (TRAP) assay was conducted for RAW 264.7 following the manufacturer's protocol (Sigma, St. Louis, Mo.). This assay was indicative of the extent of differentiation. OAAS plates (Osteogenic Core Technologies, Choongnam, Republic of Korea) were utilized to measure osteoclastic activity. RAW 264.7 cells (25×103) were inoculated in 48-well plates. Cells were treated with serum-free conditioned media from breast cancer cells or 100 nM SHH or 100 ng/ml OPN on the following day. Media was changed every two days and the experiments were terminated either on day 6 (day 7 for knockdown experiments, with transfections being done on the sixth day). At the completion, cells were detached with 5% sodium hypochlorite and the wells were observed under a Nikon Eclipse TS 100 microscope at 10× magnification. […] The percentage of area resorbed was calculated using the NIS-Elements BR. 3.1 software.

Molecule | c-jun mRNA increase (c-jun; 70 μM cyclopamine, 6 hr vs 0 hr) [fold] | c-jun mRNA increase (peak) (c-jun; 70 μM cyclopamine, 24 hr vs 0 hr) [fold] | time of peak c-jun level (c-jun; A2780-CP70, IC50 dose of agent) | c-jun phosphorylation at Ser63 [1] | c-jun phosphorylation at Thr91/93 [1] | expression of OPN, MMP9 and CTSK by the osteoclasts [2] | OPN promoter activity (OPN promoter) | osteoclast activity (area resorbed) (RAW264.7 cells)
CC1=C2C[C@H]3[C@@H](CC=C4C[C@@H](O)CC[C@@]43C)[C@@H]2CC[C@]12O[C@@H]1C[C@H](C)CN[C@H]1[C@H]2C [cyclopamine] | 3 | 13 | about 48 hours | no phosphorylation occurred at Ser63; also recorded: no substantial expression was detected; also recorded: not observed | peak levels at 6 hr | significantly reduces the expression of OPN, MMP9 and CTSK |  | 
SHH: recombinant Sonic hedgehog ligand (R & D Systems) |  |  |  |  |  |  | up-regulated the promoter activity of OPN | notably enhances (p<0.001) osteoclast activity
